Experimental data published in PubChem BioAssay AID330 (DTP/NCI, 2004).
Several values for one entry are separate records, joined by “and”; a condition that tells them apart may be missing. Equal entries are not always repeated. Toxic doses and inconclusive results are not listed. The calls were made as follows: active = survival T/C of 150% or more; inactive = T/C below 125% in these data.

System: P388 leukemia ip, CD2F1 mice, survival T/C
Test: NCI In Vivo Anticancer Drug Screen. Data for tumor model P388 Leukemia (intraperitoneal) in CD2F1 (CDF1) mice
Conditions: endpoint: median survival time, higher = longer survival
Summary of the method: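 Mice carrying the transplanted tumor received test compound or vehicle. Survival was recorded in each group, and the value is the treated-group measurement divided by that of the vehicle-treated control group.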

[1] = dose: 60.0 mg/kg/injection, schedule: Q01DX005 (ip), vehicle: Klucel (hydroxypropylcellulose) (HPC)
[2] = dose: 120.0 mg/kg/injection, schedule: Q01DX005 (ip), vehicle: Klucel (hydroxypropylcellulose) (HPC)
[3] = dose: 50.0 mg/kg/injection, schedule: Q01DX009 (ip), vehicle: saline
[4] = dose: 100.0 mg/kg/injection, schedule: Q01DX009 (ip), vehicle: saline
[5] = dose: 200.0 mg/kg/injection, schedule: Q01DX009 (ip), vehicle: saline
[6] = dose: 100.0 mg/kg/injection, schedule: Q01DX001 (ip), vehicle: Klucel (hydroxypropylcellulose) (HPC)
[7] = dose: 200.0 mg/kg/injection, schedule: Q01DX001 (ip), vehicle: Klucel (hydroxypropylcellulose) (HPC)
[8] = dose: 50.0 mg/kg/injection, schedule: Q01DX009 (ip), vehicle: Klucel (hydroxypropylcellulose) (HPC)
[9] = dose: 100.0 mg/kg/injection, schedule: Q01DX009 (ip), vehicle: Klucel (hydroxypropylcellulose) (HPC)
[10] = dose: 200.0 mg/kg/injection, schedule: Q01DX009 (ip), vehicle: Klucel (hydroxypropylcellulose) (HPC)
[11] = dose: 50.0 mg/kg/injection, schedule: Q01DX009 (ip), vehicle: saline with Tween-80
[12] = dose: 100.0 mg/kg/injection, schedule: Q01DX009 (ip), vehicle: saline with Tween-80
[13] = dose: 50.0 mg/kg/injection, schedule: Q01DX005 (ip), vehicle: Klucel (hydroxypropylcellulose) (HPC)
[14] = dose: 100.0 mg/kg/injection, schedule: Q01DX005 (ip), vehicle: Klucel (hydroxypropylcellulose) (HPC)
[15] = dose: 200.0 mg/kg/injection, schedule: Q01DX005 (ip), vehicle: Klucel (hydroxypropylcellulose) (HPC)
[16] = dose: 60.0 mg/kg/injection, schedule: Q01DX005 (ip), vehicle: saline with Tween-80
[17] = dose: 120.0 mg/kg/injection, schedule: Q01DX005 (ip), vehicle: saline with Tween-80
[18] = dose: 240.0 mg/kg/injection, schedule: Q01DX005 (ip), vehicle: saline with Tween-80

Measured: T/C

O=P1(C(Cl)(Cl)Cl)NNP(=O)(C(Cl)(Cl)Cl)NN1 (configuration not stated)
inactive: [1] 104 % of control | [2] 101 % of control | dose: 240.0 mg/kg/injection, schedule: Q01DX005 (ip), vehicle: Klucel (hydroxypropylcellulose) (HPC) 107 % of control

c1ccc2c(c1)[nH]c1nc3ncncc3nc12
inactive: [3] 100 % of control | [4] 100 % of control | [5] 100 % of control

CCC(=O)OCc1c(Cl)nc2n1CCS2
inactive: [6] 100 % of control | [7] 100 % of control

CC1(C)CCC23CCC4(C)C(CCC5C6(C)CCC(O)C(C)(C)C6CCC54C)C2C1OC3 (configuration not stated)
inactive: [8] 87 % of control | [9] 87 % of control | [10] 89 % of control

COC1=CC2C3Cc4c(-c5cc(OC)c(O)c6c5CC5C7C=C(OC)C(=O)CC67CCN5C)cc(OC)c(O)c4C2(CCN3C)CC1=O (configuration not stated)
inactive: [11] 97 % of control | [3] 105 % of control | [12] 102 % of control | [4] 94 % of control | dose: 100.0 mg/kg/injection, schedule: Q04DX003 (ip), vehicle: saline with Tween-80 104 % of control | dose: 100.0 mg/kg/injection, schedule: Q04DX003 (ip), vehicle: saline 95 % of control | [5] 105 % of control | dose: 200.0 mg/kg/injection, schedule: Q04DX003 (ip), vehicle: saline with Tween-80 106 % of control | dose: 200.0 mg/kg/injection, schedule: Q04DX003 (ip), vehicle: saline 93 % of control | dose: 400.0 mg/kg/injection, schedule: Q04DX003 (ip), vehicle: saline with Tween-80 95 % of control | dose: 400.0 mg/kg/injection, schedule: Q04DX003 (ip), vehicle: saline 96 % of control

Clc1ccc(/C=N/Nc2nnc3c(n2)[nH]c2ccccc23)cc1
inactive: dose: 100.0 mg/kg/injection, schedule: Q04DX002 (ip), vehicle: saline with Tween-80 99 % of control | dose: 200.0 mg/kg/injection, schedule: Q04DX002 (ip), vehicle: saline with Tween-80 100 % of control | dose: 400.0 mg/kg/injection, schedule: Q04DX002 (ip), vehicle: saline with Tween-80 90 % of control

C[N+](C)(C)CCC(=O)c1ccco1
inactive: dose: 6.25 mg/kg/injection, schedule: Q01DX009 (ip), vehicle: saline 117 % of control | dose: 12.5 mg/kg/injection, schedule: Q01DX009 (ip), vehicle: saline 117 % of control | dose: 25.0 mg/kg/injection, schedule: Q01DX009 (ip), vehicle: saline with Tween-80 111 % of control | dose: 25.0 mg/kg/injection, schedule: Q01DX009 (ip), vehicle: saline 106 % of control

CCCOC(=O)C1(CCl)CCC(=O)O1 (configuration not stated)
inactive: [8] 101 % of control | [9] 103 % of control | [10] 103 % of control

O=S(=O)(F)c1ncnc2nc[nH]c12
inactive: dose: 50.0 mg/kg/injection, schedule: Q01DX005 (ip), vehicle: saline with Tween-80 93 % of control | dose: 100.0 mg/kg/injection, schedule: Q01DX005 (ip), vehicle: saline with Tween-80 103 % of control | dose: 200.0 mg/kg/injection, schedule: Q01DX005 (ip), vehicle: saline with Tween-80 112 % of control

c1ccc2c(SCCCCCCSc3c4ccccc4nc4ccccc34)c3ccccc3nc2c1
inactive: [1] 90 % of control | [2] 86 % of control

CC1=CC(=O)C(O)C2(C)C1CC1OC(=O)CC3C(C)C(O)C4(O)OCC13C42 (configuration not stated)
inactive: dose: 5.0 mg/kg/injection, schedule: Q01DX009 (ip), vehicle: Klucel (hydroxypropylcellulose) (HPC) 107 % of control | dose: 10.0 mg/kg/injection, schedule: Q01DX009 (ip), vehicle: Klucel (hydroxypropylcellulose) (HPC) 117 % of control | dose: 20.0 mg/kg/injection, schedule: Q01DX009 (ip), vehicle: Klucel (hydroxypropylcellulose) (HPC) 123 % of control

CCCCCC(C)(Cl)CCCCC
inactive: [4] 101 % of control | [5] 106 % of control | dose: 400.0 mg/kg/injection, schedule: Q01DX009 (ip), vehicle: saline 106 % of control

[Cl][Pt+2][Cl].[NH-]CC(=O)O.[NH-]CC(=O)O
inactive: dose: 3.13 mg/kg/injection, schedule: Q01DX009 (ip), vehicle: water 100 % of control and 121 % of control | dose: 6.25 mg/kg/injection, schedule: Q01DX009 (ip), vehicle: water 113 % of control | dose: 12.5 mg/kg/injection, schedule: Q01DX009 (ip), vehicle: water 123 % of control and 124 % of control | dose: 25.0 mg/kg/injection, schedule: Q01DX009 (ip), vehicle: water 117 % of control | dose: 50.0 mg/kg/injection, schedule: Q01DX009 (ip), vehicle: water 118 % of control and 121 % of control

Cn1c2ccc(F)cc2c(=O)c2c(O)cc3c(c21)C=CC(C)(C)O3
inactive: [13] 100 % of control | [14] 102 % of control | [15] 94 % of control

CC(=O)O.Cl.NC1C([O-])OC(CO)C(O)C1O.O=C1OC(C(O)CO)C([O-])=C1[OH2+].[Cu+2] (configuration not stated)
inactive: dose: 3.75 mg/kg/injection, schedule: Q01DX005 (ip), vehicle: saline with Tween-80 107 % of control | dose: 7.5 mg/kg/injection, schedule: Q01DX005 (ip), vehicle: saline with Tween-80 100 % of control | dose: 15.0 mg/kg/injection, schedule: Q01DX005 (ip), vehicle: saline with Tween-80 98 % of control and 97 % of control | [16] 108 % of control

CC(=O)N1C(CO)C(O)C(O)C1n1cnc2c(N)ncnc21 (configuration not stated)
inactive: [13] 95 % of control | [14] 100 % of control | [15] 100 % of control | dose: 300.0 mg/kg/injection, schedule: Q01DX005 (ip), vehicle: Klucel (hydroxypropylcellulose) (HPC) 100 % of control

CSC(=Cc1ccc2cc(Br)ccc2[n+]1C)SC
inactive: dose: 3.12 mg/kg/injection, schedule: Q01DX009 (ip), vehicle: Klucel (hydroxypropylcellulose) (HPC) 110 % of control | dose: 6.25 mg/kg/injection, schedule: Q01DX009 (ip), vehicle: Klucel (hydroxypropylcellulose) (HPC) 117 % of control and 121 % of control | dose: 25.0 mg/kg/injection, schedule: Q01DX009 (ip), vehicle: Klucel (hydroxypropylcellulose) (HPC) 107 % of control

Cc1cc(NCCCCNCCCNc2cc(C)nc3cc(N)ccc23)c2ccc(N)cc2n1
active: dose: 12.5 mg/kg/injection, schedule: Q01DX009 (ip), vehicle: other 150 % of control | dose: 25.0 mg/kg/injection, schedule: Q01DX009 (ip), vehicle: other 175 % of control

O=c1cc[nH]c2ccc3ccccc3c12
inactive: [6] 97 % of control | [7] 96 % of control

CCCCCCCCCCCCC(=O)CCCCC(=O)OC1OCC23OC2C2CC(C)(C)CC2C2(C)CC123 (configuration not stated)
inactive: dose: 10.0 mg/kg/injection, schedule: Q01DX005 (ip), vehicle: olive oil, sesame oil, peanut oil 105 % of control | dose: 20.0 mg/kg/injection, schedule: Q01DX005 (ip), vehicle: olive oil, sesame oil, peanut oil 95 % of control | dose: 40.0 mg/kg/injection, schedule: Q01DX005 (ip), vehicle: olive oil, sesame oil, peanut oil 101 % of control | dose: 80.0 mg/kg/injection, schedule: Q01DX005 (ip), vehicle: olive oil, sesame oil, peanut oil 94 % of control

COc1ccc(C2=C(Cl)C(=O)N(c3ccccc3)C(=O)C2(Cl)Cl)cc1
inactive: dose: 100.0 mg/kg/injection, schedule: Q04DX002 (ip), vehicle: Klucel (hydroxypropylcellulose) (HPC) 103 % of control | dose: 200.0 mg/kg/injection, schedule: Q04DX002 (ip), vehicle: Klucel (hydroxypropylcellulose) (HPC) 107 % of control | dose: 400.0 mg/kg/injection, schedule: Q04DX002 (ip), vehicle: Klucel (hydroxypropylcellulose) (HPC) 107 % of control

COC(=O)c1c2c(cc3nc4ccccc4nc13)OCO2
inactive: [16] 96 % of control | [17] 97 % of control | [18] 90 % of control

Nc1[nH]c(=S)ncc1-c1ccccc1Cl
inactive: [16] 98 % of control | [17] 95 % of control | [18] 93 % of control

CC1=NN(C(=O)c2ccncc2)C(=O)C1N=Nc1ccc(S(N)(=O)=O)cc1 (configuration not stated)
inactive: [11] 94 % of control | [12] 95 % of control | dose: 200.0 mg/kg/injection, schedule: Q01DX009 (ip), vehicle: saline with Tween-80 92 % of control
